According to PubChem BioAssay (NCI):
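Briefly, cells in 96-well plates were exposed to five compound concentrations for 48 h, and endpoints were estimated by linear interpolation. Abbreviation: GI50, concentration required for 50% inhibition of growth. TGI is the concentration that stops growth completely.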 Where a SMILES comes first, the peptide text is derived from it. [ ]: non-standard residue; d: D form. The star is where a group is joined. ξ: configuration not given here. X6 = FC(F)(F)c1cc(NC(=S)*)cc(C(F)(F)F)c1; ξF = NC(Cc1ccccc1)C(=O)O

Assays:
Test in all cases: NCI-60 cell line screen, 48 h
EKVX NSCLC = test system: EKVX NSCLC
U251 CNS = test system: U251 CNS
SK-MEL-28 melanoma = test system: SK-MEL-28 melanoma
SK-OV-3 ovarian = test system: SK-OV-3 ovarian
PC-3 prostate = test system: PC-3 prostate
HOP-62 NSCLC = test system: HOP-62 NSCLC
LOX IMVI melanoma = test system: LOX IMVI melanoma
786-0 renal = test system: 786-0 renal
OVCAR-5 ovarian = test system: OVCAR-5 ovarian
SN12C renal = test system: SN12C renal

Row | Structure (SMILES) | GI50 (EKVX NSCLC) | TGI (EKVX NSCLC) | GI50 (U251 CNS) | TGI (U251 CNS) | GI50 (SK-MEL-28 melanoma) | TGI (SK-MEL-28 melanoma) | GI50 (SK-OV-3 ovarian) | TGI (SK-OV-3 ovarian) | GI50 (PC-3 prostate) | TGI (PC-3 prostate) | GI50 (HOP-62 NSCLC) | TGI (HOP-62 NSCLC) | GI50 (LOX IMVI melanoma) | TGI (LOX IMVI melanoma) | GI50 (786-0 renal) | TGI (786-0 renal) | GI50 (OVCAR-5 ovarian) | TGI (OVCAR-5 ovarian) | GI50 (SN12C renal) | TGI (SN12C renal)
1 | CCC(CO)Nc1nc2ccc(Cl)cc2c2ccccc12 (centres undefined) | 6.23 µM | 20.2 µM | 5.18 µM | 18.3 µM | 14.3 µM | 27.3 µM | 11.8 µM | 24.1 µM | 10.3 µM | 24.9 µM | 7.95 µM | 21 µM | 6.17 µM | 19.4 µM | 7.37 µM | 20.1 µM | 5.4 µM | 19.7 µM | 11.5 µM | 25.3 µM
2 | COc1ccc2c(c1)/C(=C/c1c(C)nc3sc(C)nn13)C(=O)N2 | 8.36 µM | > 100 µM | 4.08 µM | > 100 µM | 5.29 µM | > 100 µM | 3.62 µM | > 27.5 µM | 2.48 µM | > 100 µM | 4.35 µM | 61.9 µM | 5.49 µM | > 100 µM | 6.08 µM | > 100 µM | 9.28 µM | > 100 µM | 7.2 µM | > 100 µM
3 | CSc1nc2c(c(=O)[nH]1)N=C1c3ccccc3C(=O)C1C(c1ccccc1)N2 (centres undefined) | 12.8 µM | > 100 µM | 3.52 µM | > 100 µM | 3.73 µM | > 100 µM | 7.65 µM | > 100 µM | 3.64 µM | > 100 µM | 5.37 µM | > 100 µM | 5.65 µM | > 100 µM | 6.44 µM | > 100 µM | 63.4 µM | > 100 µM | 6.39 µM | > 100 µM
4 | Cn1c2ccccc2c2c(Nc3ccccc3)c3ccccc3nc21 | 14.3 µM | 51.1 µM | 22.7 µM | 71.8 µM | 17 µM | 49.6 µM | 41 µM | > 100 µM | 11.7 µM | 48.1 µM | – | – | – | – | 17.3 µM | 41.8 µM | > 100 µM | > 100 µM | 16.5 µM | 47.3 µM
5 | Nc1ccccc1SC(C[N+](=O)[O-])c1ccc2c(c1)OCO2 (centres undefined) | – | 13.3 µM | – | 8.53 µM | – | 11.3 µM | – | 15.9 µM | – | 20.6 µM | – | 4.38 µM | – | 3.68 µM | – | 3.15 µM | – | 9.85 µM | – | 14.3 µM
6 | CCCCC(=O)OCC(=O)[C@]1(O)Cc2c(O)c3c(c(O)c2[C@@H](OC2CC(NC(=O)C(F)(F)F)C(O)C(C)O2)C1)C(=O)c1c(OC)cccc1C3=O (some centres undefined) | – | 13.5 µM | – | 2.81 µM | – | 12.2 µM | – | 1.73 µM | – | 16.9 µM | – | 0.988 µM | – | 1.37 µM | – | 1.35 µM | – | 7.49 µM | – | 3.91 µM
7 | CCN(CCO)CC1CCCC2CCCCC21 (centres undefined) | – | > 100 µM | – | > 100 µM | – | > 100 µM | – | > 100 µM | – | > 100 µM | – | > 100 µM | – | – | – | > 100 µM | – | > 100 µM | – | > 100 µM
8 | O=C(CC1(O)C(=O)Nc2c(Cl)cc(Cl)cc21)c1ccc(Br)cc1Br (centres undefined) | – | 34.6 µM | – | 28.5 µM | – | 27.7 µM | – | 44.2 µM | – | 31.4 µM | – | 36.5 µM | – | 15 µM | – | 25.5 µM | – | 31.9 µM | – | 28.5 µM
9 | Cc1ccc(C(=O)/C(=C/c2ccc([N+](=O)[O-])cc2)SCc2ccc(Cl)cc2)cc1 | 3.04 µM | 13.9 µM | 1.11 µM | 2.4 µM | 3.36 µM | 14.7 µM | 27.4 µM | > 100 µM | 1.12 µM | 3.49 µM | 29.7 µM | > 100 µM | 0.445 µM | 1.65 µM | 1.66 µM | 3.58 µM | 2.5 µM | 9.12 µM | 1.83 µM | 4.68 µM
10 | NC(Cc1c[nH]c2c(O)cccc12)C(=O)O (centres undefined) | > 100 µM | > 100 µM | > 100 µM | > 100 µM | > 100 µM | > 100 µM | > 100 µM | > 100 µM | > 100 µM | > 100 µM | > 100 µM | > 100 µM | > 100 µM | > 100 µM | > 100 µM | > 100 µM | > 100 µM | > 100 µM | > 100 µM | > 100 µM
11 | NC(=O)c1cccc2cn(-c3ccc([C@@H]4CCCNC4)cc3)nc12 | 19.7 µM | 64.2 µM | 12.6 µM | 29 µM | 16.3 µM | 30.7 µM | 12.6 µM | 38.2 µM | 16.1 µM | > 100 µM | 8.44 µM | 27.8 µM | 8.16 µM | 22.2 µM | 16.2 µM | 33 µM | 24 µM | 64.8 µM | 9.15 µM | 56.8 µM
12 | OCc1ccc(N2CCC2c2ccc(F)cc2)cc1Cl (centres undefined) | – | – | 3.92 µM | > 46.5 µM | 28.7 µM | > 100 µM | 20.5 µM | > 89.1 µM | 21 µM | 67.1 µM | 10.1 µM | > 68 µM | 22.5 µM | 51.1 µM | 22.6 µM | > 61.5 µM | 0.256 µM | 1.9 µM | 18.2 µM | > 63.8 µM
13 | COC(=O)[C@@H](NC(=O)CNC(=O)[C@H]1CCCN1C(=O)C(Cc1ccccc1)NC(=S)Nc1cc(C(F)(F)F)cc(C(F)(F)F)c1)C(C)C (some centres undefined) (X6-[ξF][dP]GV-OMe) | 3.12 µM | 22.3 µM | – | – | 1.84 µM | 3.38 µM | 2.98 µM | 8.26 µM | 2.48 µM | – | 1.92 µM | 3.62 µM | 2.25 µM | 5.55 µM | 2.12 µM | 4.34 µM | 1.93 µM | 3.64 µM | 1.85 µM | 4.26 µM
14 | Cn1cc(C2=C(c3cn(C)c4ncccc34)C(=O)NC2=O)c2ccccc21 | – | – | 7.27 µM | > 25 µM | 8.56 µM | > 25 µM | 6.97 µM | 21.7 µM | 8.27 µM | > 25 µM | 10.9 µM | > 25 µM | 6.97 µM | > 25 µM | 8.72 µM | > 25 µM | 10.4 µM | > 25 µM | 6.9 µM | > 25 µM
15 | CCCCOC(=O)C1OC(O[C@H]2CCC3(C)C(CCC4(C)C3CC=C3C5CC(C)(C)CCC5(C(=O)O)CC[C@]34C)C2(C)C)C(OC2OC(CO)C(O)C(O)C2O)C(OC2OC(CO)C(O)C(O)C2O)C1O (some centres undefined) | 24.4 µM | 49.7 µM | 17.9 µM | 31.8 µM | 26.7 µM | 52.2 µM | – | – | 34.7 µM | > 100 µM | 19.4 µM | 35.6 µM | 18 µM | 31.8 µM | 26.2 µM | 70.9 µM | 28.8 µM | 56.4 µM | 21.8 µM | 40 µM
16 | CCCCCN(CCCCC)CCCNc1c2c(nc3ccc(Cl)cc13)CCCC2 | 2.78 µM | 13.6 µM | 2.58 µM | 7.37 µM | 3.74 µM | 13.8 µM | 4.08 µM | 13.8 µM | 2.46 µM | 8.9 µM | – | – | 2.06 µM | 5.97 µM | 3.91 µM | 13.6 µM | 3.36 µM | 15 µM | 2.92 µM | 12.8 µM
17 | CC1=C(C(=O)Nc2ccc(Cl)c(Cl)c2)C(c2cccc(Oc3ccccc3)c2)NC(=S)N1 (centres undefined) | 7.55 µM | 15 µM | 7.84 µM | 14.8 µM | – | – | 8.1 µM | 16.3 µM | 9.71 µM | 29.1 µM | 14.2 µM | 24.2 µM | 7.48 µM | 14.7 µM | 8.29 µM | 17.4 µM | 9.38 µM | 18.7 µM | 8.75 µM | 15.9 µM
18 | COc1ccc2c(C3=C(c4cn(C)c5ccccc45)C(=O)NC3=O)cn(C)c2c1 | – | – | 0.102 µM | > 25 µM | 0.166 µM | > 25 µM | 0.138 µM | > 25 µM | 0.0936 µM | > 25 µM | 0.122 µM | > 25 µM | 0.154 µM | > 25 µM | 0.255 µM | > 25 µM | – | – | 0.221 µM | > 25 µM
19 | C#Cc1ccc(-n2c(/C=C/c3ccc(C(F)(F)F)cc3)nc3ncccc3c2=O)cc1 | – | – | 1.67 µM | 3.13 µM | 1.78 µM | 3.26 µM | 3.61 µM | 13.4 µM | 1.96 µM | 6.31 µM | 2.43 µM | 5.11 µM | 1.89 µM | 4.29 µM | 2.06 µM | 3.7 µM | 1.94 µM | 3.56 µM | 2.08 µM | 5.63 µM
20 | COc1cc(Cc2cnc(/N=C3\C(=O)N(CN4CCN(c5c(F)cc6c(=O)c(C(=O)O)cn(C7CC7)c6c5OC)CC4C)c4ccc(F)cc43)nc2N)cc(OC)c1OC (centres undefined) | 21.9 µM | 56.6 µM | 8.79 µM | 21 µM | – | – | 15 µM | 43.1 µM | 13 µM | 25.7 µM | 14.4 µM | 27.4 µM | 2.38 µM | 4.74 µM | 11.1 µM | 23.1 µM | 10.6 µM | 22.5 µM | 15.6 µM | 31.1 µM
